Results from US20250269072A1, “PROCESSES FOR PREPARING RADIOLABELLED CONJUGATES” (CENTENARY INSTITUTE OF CANCER MEDICINE AND CELL BIOLOGY, priority 2021, published 2025).
“And” between values parts separate entries of the source, which are not always exact repeats. Identical values can stand only once.

Columns and labels:
[1] = In-human study of ^68Ga-CDI: safety and tolerability; format: in vivo; details: 5 subjects
Text: This open label, single arm interventional study recruited subjects with histologically or cytologically confirmed solid malignancy with at least one measurable lesion >2 cm. The study was approved by the South Eastern Sydney Local Health District Human Research Ethics committee (2019/ETH04821) and all subjects signed an informed consent form. […] Within 28 days of undergoing the study subjects were screened to ensure they met inclusion and exclusion criteria and written consent obtained. Although not an inclusion criteria for participation in this study, all patients also underwent an FDG PET CT between 3-11 days prior to CDI PET CT as part of standard of care.
Subjects were encouraged to be well orally hydrated prior to ^68Ga-CDI administration, otherwise there was no preparation required. Two intravenous cannulas were placed (one for administration of ^68Ga-CDI and the other blood sampling during the study). Immediately prior to ^68Ga-CDI administration clinical assessment of participants was performed, vital signs (blood pressure, heart rate, respiratory rate, arterial oxygen saturation and temperature) measured and a 12-lead electrocardiogram (ECG) obtained and QTc calculated according to Bazett's formula to confirm eligibility. ^68Ga-CDI was administered as an intravenous bolus.
During and immediately following completion of the scanning protocol, subjects were clinically assessed for adverse reactions and vital signs measured. Blood was collected for venous radioactivity measurements at 1, 2 and 3 hours following ^68Ga-CDI administration. Subjects were asked to void between 1.5 to 2 h and 2.75 to 3 h after ^68Ga-CDI administration, urine collected, the volume measured, and an aliquot counted in a gamma counter to determine activity concentration. Following completion of the scanning protocol, ECG was recorded, and blood collected for biochemical and haematological assessment.
On the day following the ^68Ga-CDI PET CT subjects were clinically assessed for adverse reactions, vital signs, ECG obtained, and blood collected for biochemical and haematological assessment. […]

[2] = Human studies: radiation dosimetry of subjects 1-4 (Olinda/EXM); format: in vivo; details: subjects 1-4 = the 7th table-the 10th table
Protocol: For subjects 1-4, radiation dosimetry was calculated using Olinda/EXM based on the organ biodistribution discussed above.
Tables 7-10 show the estimate for radiation dosimetry for subjects 1˜4 of 200 MBq of ^68Ga NODAGA GSAO for individual organs and for the whole body in mSv/MBq (EDE cont.=effective dose equivalent contribution, ED Cont.=effective dose contribution). The estimated whole-body dose from the one (1) low dose CT and two (2) ultra-low dose CTs was 9.2 mSv.

O=C(O)CNC(=O)[C@H](CSCC(=O)Nc1ccc([As](O)O)cc1)NC(=O)CC[C@H](NC(=O)CCC1C(=O)[O][68Ga]2[O]C(=O)CN3CCN(CCN1CC3)CC(=O)[O]2)C(=O)O (some centres unmarked) [^68Ga-NODAGA-GSAO]
adverse or pharmacologic effects [1]: no adverse or clinically detectable pharmacologic effects | vital signs, laboratory studies, electrocardiograms [1]: No significant changes | tolerability ([1]; 205±4.1 MBq i.v.): well tolerated | Alpha dose ([2]; Adrenals): 0.00E+00 mSv/MBq | ED Cont. ([2]; Adrenals): 7.09E−05 mSv/MBq and 7.38E−05 mSv/MBq and 4.84E−05 mSv/MBq and 8.93E−05 mSv/MBq | Photon dose ([2]; Adrenals): 4.52E−03 mSv/MBq and 5.24E−03 mSv/MBq and 3.71E−03 mSv/MBq and 4.86E−03 mSv/MBq | Total dose ([2]; Adrenals): 1.42E−02 mSv/MBq and 1.48E−02 mSv/MBq and 9.68E−03 mSv/MBq and 1.79E−02 mSv/MBq | Alpha dose ([2]; Brain): 0.00E+00 mSv/MBq | Beta dose ([2]; Brain): 6.82E−04 mSv/MBq and 6.40E−04 mSv/MBq and 6.13E−04 mSv/MBq and 7.79E−04 mSv/MBq | ED Cont. ([2]; Brain): 9.10E−06 mSv/MBq and 1.05E−05 mSv/MBq and 7.39E−06 mSv/MBq and 1.00E−05 mSv/MBq | EDE Cont. ([2]; Brain): 0.00E+00 mSv/MBq | Photon dose ([2]; Brain): 1.14E−03 mSv/MBq and 1.46E−03 mSv/MBq and 8.65E−04 mSv/MBq and 1.23E−03 mSv/MBq | Total dose ([2]; Brain): 1.82E−03 mSv/MBq and 2.10E−03 mSv/MBq and 1.48E−03 mSv/MBq and 2.01E−03 mSv/MBq | Alpha dose ([2]; Breasts): 0.00E+00 mSv/MBq | Photon dose ([2]; Breasts): 2.11E−03 mSv/MBq and 2.76E−03 mSv/MBq and 1.59E−03 mSv/MBq and 2.25E−03 mSv/MBq | Alpha dose ([2]; Gallbladder Wall): 0.00E+00 mSv/MBq | ED Cont. ([2]; Gallbladder Wall): 0.00E+00 mSv/MBq | EDE Cont. ([2]; Gallbladder Wall): 0.00E+00 mSv/MBq | Photon dose ([2]; Gallbladder Wall): 4.59E−03 mSv/MBq and 5.27E−03 mSv/MBq and 4.07E−03 mSv/MBq and 4.46E−03 mSv/MBq | Total dose ([2]; Gallbladder Wall): 8.07E−03 mSv/MBq and 9.96E−03 mSv/MBq and 6.09E−03 mSv/MBq and 8.56E−03 mSv/MBq | Alpha dose ([2]; Heart Wall): 0.00E+00 mSv/MBq | Beta dose ([2]; Heart Wall): 6.65E−03 mSv/MBq and 8.27E−03 mSv/MBq and 4.65E−03 mSv/MBq and 7.57E−03 mSv/MBq | ED Cont. ([2]; Heart Wall): 0.00E+00 mSv/MBq | EDE Cont. ([2]; Heart Wall): 0.00E+00 mSv/MBq | Photon dose ([2]; Heart Wall): 3.57E−03 mSv/MBq and 4.29E−03 mSv/MBq and 2.82E−03 mSv/MBq and 3.84E−03 mSv/MBq | Total dose ([2]; Heart Wall): 1.02E−02 mSv/MBq and 1.26E−02 mSv/MBq and 7.48E−03 mSv/MBq and 1.14E−02 mSv/MBq | Alpha dose ([2]; Kidneys): 0.00E+00 mSv/MBq | Beta dose ([2]; Kidneys): 4.32E−02 mSv/MBq and 4.21E−02 mSv/MBq and 4.45E−02 mSv/MBq and 4.30E−02 mSv/MBq | ED Cont. ([2]; Kidneys): 2.52E−04 mSv/MBq and 2.48E−04 mSv/MBq and 2.57E−04 mSv/MBq | EDE Cont. ([2]; Kidneys): 3.03E−03 mSv/MBq and 2.98E−03 mSv/MBq and 3.08E−03 mSv/MBq and 3.02E−03 mSv/MBq | Photon dose ([2]; Kidneys): 7.22E−03 mSv/MBq and 7.59E−03 mSv/MBq and 6.83E−03 mSv/MBq and 7.33E−03 mSv/MBq | Total dose ([2]; Kidneys): 5.04E−02 mSv/MBq and 4.97E−02 mSv/MBq and 5.13E−02 mSv/MBq and 5.03E−02 mSv/MBq | Alpha dose ([2]; LLI Wall): 0.00E+00 mSv/MBq | ED Cont. ([2]; LLI Wall): 2.43E−03 mSv/MBq and 2.50E−03 mSv/MBq and 2.44E−03 mSv/MBq and 1.48E−03 mSv/MBq | Photon dose ([2]; LLI Wall): 7.31E−03 mSv/MBq and 7.16E−03 mSv/MBq and 5.96E−03 mSv/MBq and 8.79E−03 mSv/MBq | Total dose ([2]; LLI Wall): 2.02E−02 mSv/MBq and 2.08E−02 mSv/MBq and 2.03E−02 mSv/MBq and 1.23E−02 mSv/MBq | Alpha dose ([2]; Liver): 0.00E+00 mSv/MBq | Beta dose ([2]; Liver): 1.27E−02 mSv/MBq and 1.45E−02 mSv/MBq and 1.20E−02 mSv/MBq and 1.16E−02 mSv/MBq | ED Cont. ([2]; Liver): 8.78E−04 mSv/MBq and 1.00E−03 mSv/MBq and 8.20E−04 mSv/MBq and 8.13E−04 mSv/MBq | Photon dose ([2]; Liver): 4.84E−03 mSv/MBq and 5.51E−03 mSv/MBq and 4.36E−03 mSv/MBq and 4.71E−03 mSv/MBq | Total dose ([2]; Liver): 1.76E−02 mSv/MBq and 2.00E−02 mSv/MBq and 1.64E−02 mSv/MBq and 1.63E−02 mSv/MBq | Alpha dose ([2]; Lungs): 0.00E+00 mSv/MBq | Beta dose ([2]; Lungs): 5.19E−03 mSv/MBq and 5.73E−03 mSv/MBq and 5.16E−03 mSv/MBq and 4.82E−03 mSv/MBq | ED Cont. ([2]; Lungs): 9.74E−04 mSv/MBq and 1.11E−03 mSv/MBq and 9.04E−04 mSv/MBq and 9.57E−04 mSv/MBq | EDE Cont. ([2]; Lungs): 9.74E−04 mSv/MBq and 1.11E−03 mSv/MBq and 9.04E−04 mSv/MBq and 9.57E−04 mSv/MBq | Photon dose ([2]; Lungs): 2.93E−03 mSv/MBq and 3.54E−03 mSv/MBq and 2.37E−03 mSv/MBq and 3.15E−03 mSv/MBq | Total dose ([2]; Lungs): 8.12E−03 mSv/MBq and 9.27E−03 mSv/MBq and 7.53E−03 mSv/MBq and 7.97E−03 mSv/MBq | Alpha dose ([2]; Muscle): 0.00E+00 mSv/MBq | Beta dose ([2]; Muscle): 6.19E−03 mSv/MBq and 6.08E−03 mSv/MBq and 5.15E−03 mSv/MBq and 7.68E−03 mSv/MBq | ED Cont. ([2]; Muscle): 4.85E−05 mSv/MBq and 4.95E−05 mSv/MBq and 3.99E−05 mSv/MBq and 5.88E−05 mSv/MBq | EDE Cont. ([2]; Muscle): 0.00E+00 mSv/MBq | Photon dose ([2]; Muscle): 3.51E−03 mSv/MBq and 3.83E−03 mSv/MBq and 2.83E−03 mSv/MBq and 4.07E−03 mSv/MBq | Total dose ([2]; Muscle): 9.71E−03 mSv/MBq and 9.91E−03 mSv/MBq and 7.98E−03 mSv/MBq and 1.18E−02 mSv/MBq | Alpha dose ([2]; Osteogenic Cells): 0.00E+00 mSv/MBq | Photon dose ([2]; Osteogenic Cells): 3.47E−03 mSv/MBq and 4.14E−03 mSv/MBq and 2.74E−03 mSv/MBq and 3.80E−03 mSv/MBq | Alpha dose ([2]; Ovaries): 0.00E+00 mSv/MBq | Photon dose ([2]; Ovaries): 7.00E−03 mSv/MBq and 6.95E−03 mSv/MBq and 5.52E−03 mSv/MBq and 8.79E−03 mSv/MBq | Total dose ([2]; Ovaries): 1.01E−02 mSv/MBq and 1.16E−02 mSv/MBq and 7.54E−03 mSv/MBq and 1.23E−02 mSv/MBq | Alpha dose ([2]; Pancreas): 0.00E+00 mSv/MBq | Beta dose ([2]; Pancreas): 1.20E−02 mSv/MBq and 1.62E−02 mSv/MBq and 1.13E−02 mSv/MBq and 1.18E−02 mSv/MBq | ED Cont. ([2]; Pancreas): 8.46E−05 mSv/MBq and 1.10E−04 mSv/MBq and 7.72E−05 mSv/MBq and 8.44E−05 mSv/MBq | EDE Cont. ([2]; Pancreas): 8.14E−04 mSv/MBq and 1.32E−03 mSv/MBq and 9.27E−04 mSv/MBq and 1.01E−03 mSv/MBq
